Laboratory results taken from patent US20090240070A1, “WHITENING DERMATOLOGICAL PREPARATIONS” (SHOWA DENKO K.K., priority 2006, published 2009).

Columns and labels:
[1] = tested on: culture skin model (MEL-300) containing melanin cells; conditions: for Amount of melanin synthesized (% relative to the control): 0.5% by mass test article solution, 0.1 ml, 11 days of incubation, control = 100%; for inhibition of melanin synthesis compared with tranexamic acid (in words): conclusion from Table 4
Method: The above test articles, each 0.5% by mass, were dissolved separately in sterilized water containing 10% bovine serum albumin and 1% DMSO to give test article solutions.
The skin model was cultured for 11 days using the supplied culture medium LLMM. Each article was tested two times. The culture medium was changed every other day during the incubation.
After 11 days of incubation, the skin model was washed and was measured for the cell survival rate by colorimetry (570 nm) with the Alamar Blue reagent (manufactured by Molecular Probe). Thereafter, the melanin synthesized in the skin model was determined in the following manner.
The skin model was soaked overnight in a liquid which consisted of 0.2 ml of a 10 mM tris buffer solution (pH 6.8) containing 1% SDS and 0.05 mM EDTA, and 0.02 ml of 5 mg/ml Proteinase K. On the next day, 0.02 ml of 5 mg/ml Proteinase K was added, followed by heating at 45° C. for 4 hours. Consequently, the skin model was dissolved. The lysate was made alkaline with 0.025 ml of a 500 mM sodium carbonate solution, and was combined with 5 μl of 30% hydrogen peroxide, followed by heating at 80° C. for 30 minutes to perform reaction. To prepare a standard sample solution, 0.24 ml of a melanin solution of known concentration was combined with 0.025 ml of a 500 mM sodium carbonate solution and 5 μl of 30% hydrogen peroxide, followed by heating at 80° C. for 30 minutes to perform reaction.
The standard sample solution and the lysate obtained were each cooled and extracted with 0.1 ml of chloroform/methanol (2/1). The aqueous phase was measured for the absorbance at 405 nm, and the melanin synthesized was determined using a calibration curve obtained with the standard sample.

[2] = 0.5% by mass solution, 0.1 ml on minipig skin, 24 hours, 37° C.; HPLC
Method: The above test articles, each 0.5% by mass, were dissolved separately in Dulbecco's PBS (−) containing 10% bovine serum albumin to give test article solutions.
2-cm square skin pieces of minipig (Charles River Laboratories Inc. (United States of America)) were placed in the Netwell (manufactured by Corning Incorporated), and assay rings (Teflon® rings with a center opening) on which a silicon sealant had been applied were pressed and fixed to the epidermis of the skin. Subsequently, 2 ml of a skin culture medium (TOYOBO CO., LTD.) was added to a multiwell plate, and the Netwell was set such that skin lower portions would be soaked. Each of the test article solutions, 0.1 ml, was slowly poured into the opening of assay ring. When no leakage was confirmed, the Netwell was sealed with multiplate seals and were allowed to stand in an incubator at 37° C. and 5% carbon dioxide. […]
The test articles in the tissue extracts were determined by HPLC.
The protein in the tissue extracts was determined by the Lowry method.
400 μl of the reagent 4 was added to a sample tube containing 20 μl of the tissue extract or the standard sample solution, followed by mixing. […] The absorbance at 750 nm was measured with a spectrophotometer, and the protein concentration in the tissue extract was determined using a calibration curve obtained with the standard sample.

SMILES: Cc1c(C)c2c(c(C)c1OC(=O)[C@H]1CC[C@H](CN)CC1)CCC(C)(CCCC(C)CCCC(C)CCCC(C)C)O2.Cl (mixture of isomers) [b, dl-α-Tocopherol tranexamate hydrochloride]
- Amount of melanin synthesized (% relative to the control) [1]: 60%
- inhibition of melanin synthesis compared with tranexamic acid (in words) [1]: inhibit the melanin synthesis more effectively than tranexamic acid

SMILES: Cc1c(OC(=O)[C@H]2CC[C@H](CN)CC2)cc2c(c1C)OC(C)(CCCC(C)CCCC(C)CCCC(C)C)CC2.Cl (mixture of isomers) [c, dl-γ-Tocopherol tranexamate hydrochloride]
- Amount of melanin synthesized (% relative to the control) [1]: 44%
- inhibition of melanin synthesis compared with tranexamic acid (in words) [1]: inhibit the melanin synthesis more effectively than tranexamic acid

SMILES: NC[C@H]1CC[C@H](C(=O)O)CC1 [a, Tranexamic acid, reference compound]
- Amount of melanin synthesized (% relative to the control) [1]: 99%
- Determined value, amount of test article in skin tissue extract [2]: 0.034 μmol/mg skin protein
